Results reported in US9908886B2 (Agency for Science, Technology and Research, priority 2012, dated 2018).
Entries after “also recorded” stand apart in the source; their conditions may differ.

Legend:
MNK2 = MNK2 (Homo sapiens (Human), UniProt Q9HBH9); test: In vitro MNK kinase assay (Caliper LabChip mobility shift); type: biochemical; conditions: enzymatic, 250 μM ATP; read-out: IC50 Mnk2
[1] = system: CD34+ BC-CML primary cells; test: Serial replating assay; type: cell-based, human; conditions: for serial replating efficiency of CD34+ BC cells: increasing dose, 48 hr treatment, compared to DMSO
Excerpt: (§1) Cord Blood (CB) samples were purchased from the Singapore Cord Blood bank. CML samples were the Singapore General Hospital after signed informed consent under local IRB-approved procedures. MNCs were obtained using Ficoll separation, and CD34^+ cells selected by immunomagnetic beads (Miltenyi Biotech, Germany).
CD34-enriched CB and BC cells were thawed and allowed to recover overnight in serum-free StemPro media (Invitrogen, Carlsbad, Calif.), supplemented with human growth factors and 1× nutrient supplement (Invitrogen). Cells were then subjected to drug treatment for 48 hr, harvested, washed, and seeded in methycellulose (H4434, […] Technologies, Canada). Colonies were enumerated after 2 weeks, individually picked, and replated in fresh methylcellulose in a 96-well format, and counted at 2 weeks. Three rounds of serial replating (representing>8 weeks in culture) were performed.

MNK1 = MNK1 (Homo sapiens, UniProt Q9BUB5); test: In vitro MNK kinase assay (Caliper LabChip mobility shift); type: biochemical; conditions: enzymatic, 1.2 mM ATP; read-out: IC50 Mnk1
[2] = system: eIF4E phosphorylation in K562 cells; test: Western blot of eIF4E phosphorylation in BC-CML cell line; type: cell-based; conditions: various concentrations, 24 h
Method: (§2) K562 cell line was obtained from the ATCC, and grown in RPMI supplemented with 10% FCS, L-glutamine, and penicillin/streptomycin.
(§3) Exponentially growing cells were plated at 2×10^5 cells/ml, and whole cell lysate processed for western blot analysis using antibodies recognizing eIF4E, phospho-eIF4E (Cell signaling Technology),

[3] = system: eIF4E Ser209 phosphorylation in Hela cells; test: MNK cell-based assay, AlphaScreen SureFire; conditions: 2 hours
Excerpt: It has been reported that Ser209 of eIF4E is solely phosphorylated by the MNK enzymes. The ability of compounds to inhibit this process in Hela cells was investigated using the AlphaScreen SureFire® assay platform from Perkin Elmer (Waltham, Mass.). eIF4E phosphorylated on Ser209 is recognized by two antibodies, the first which is fused to a streptavidin coated donor bead binds to an epitope away from Ser209, the second which is fused to a protein A conjugated acceptor bead binds to phosphorylated Ser209. The phosphorylation of eIF4E on Ser209 brings the two antibodies into close proximity and when excited by a laser a singlet oxygen is released by the donor bead which excites the acceptor bead resulting in the emission of light. This enables the monitoring of eIF4E Ser209 phosphorylation and its inhibition in a cellular context.
Hela cells were seeded into microtitre plates (30,000 cells per well) in 100 μl of culture medium and incubated at 37° C. for 24 hours. The media was then removed by aspiration and the cells resuspended in 50 μl of serum free medium containing the test compound and incubated at 37° C. for 2 hours. The culture medium was again removed by aspiration and the cells resuspended in lysis buffer (provided in Perkin Elmer SureFire® Assay Kit). After agitation at 350 rpm for 20 minutes at 22° C., 4 μl was transferred to a 384 well OptiPlate™ (Perkin Elmer, Waltham, Mass.). To each well was added 5 μl of acceptor mix; the plate was sealed and agitated gently at 22° C. for 2 hours. Then, in subdued light, 2 μl of donor mix was added to each well, the plate was sealed, wrapped in aluminum foil and agitated gently at 22° C. for 2 hours. Emission was measured using the EnVision® plate reader (Perkin Elmer, Waltham, Mass.).
Inhibition constants (IC50) were determined by plotting AlphaScreen signal versus log compound concentration and fitting with a non-linear regression algorithm using GraphPad Prism (GraphPad Software Inc.).

[4] = system: nuclear beta-catenin in BC-CML cells; test: Immunofluorescence analysis of nuclear active beta-catenin; type: cell-based, human
Excerpt: as §1
Cells (1×10^5) were cytospun onto glass slides, fixed with 4% paraformaldehye, and stained with mouse monoclonal antibodies against activated β-catenin (clone 8E7, Millipore, UK), or rabbit monoclonal antibodies against phospho-eIF4E S209 (EP2151Y, Abeam, UK). Slides were then stained with either PE-conjugated anti-mouse or FITC-conjugated anti-rabbit antibodies. Images were obtained with the use of a fluorescence microscope (Olympus IX71S1F3) at 40× magnification.

[5] = system: K562 cells over-expressing eIF4E; test: Cell cytotoxicity assay (CellTiter-Glo); type: cell-based; conditions: 48 hours extended to 6 days
Method: (§4) Cancer cell lines, MV-4-11 (leukemia), P116.c139 (acute T cell leukemia) and D1.1 (acute T cell leukemia), were purchased from ATCC and cultured according to supplier's recommendations. K562 cells (myelogenous leukemia) over-expressing eIF4E, were also used for the cytotoxicity assay. For cells treated for 48 hours, 5000 cells were seeded in 70 μl of growth medium in black, flat-bottom 96-well plate. For cells treated for six days, 1000 cells were seeded in 70 μl of growth medium in black, flat-bottom 96-well plate. […] 50 μl of the diluted compounds was added to the cells and incubated at 37° C. in 5% CO2. After 48 hours or six days treatment, cell viability was determined by CellTiter-Glo Luminescent Cell Viability Assay (Promega, Madison, Wis.). 120 μl of the reagent was added to the cells and luminescence was measured using Tecan Safire Reader. Data was analysed with Graphpad Prism software and the figures represented indicate the half maximal inhibitory concentration (IC50). Error bars denote standard deviation (SD).

[6] = system: BCR-ABL activity (phosphorylation of CrKl) in K562 cells; test: Western blot of CrKl phosphorylation in K562 cells; type: cell-based
Method: as §2, §3

D1.1 cells = test: Cell cytotoxicity assay (CellTiter-Glo); type: cell-based; conditions: 48 hours extended to 6 days
Method: as §4

P116.c139 cells = test: Cell cytotoxicity assay (CellTiter-Glo); type: cell-based; conditions: 48 hours extended to 6 days
Method: as §4

[7] = system: eIF4E phosphorylation in BC GMPs; conditions: background section; cited from earlier work
[8] = system: CD34+ BC-CML primary cells; conditions: background section; including cells carrying T315I mutation; cited from earlier work

Chain of MNK2 (Q9HBH9 84-388): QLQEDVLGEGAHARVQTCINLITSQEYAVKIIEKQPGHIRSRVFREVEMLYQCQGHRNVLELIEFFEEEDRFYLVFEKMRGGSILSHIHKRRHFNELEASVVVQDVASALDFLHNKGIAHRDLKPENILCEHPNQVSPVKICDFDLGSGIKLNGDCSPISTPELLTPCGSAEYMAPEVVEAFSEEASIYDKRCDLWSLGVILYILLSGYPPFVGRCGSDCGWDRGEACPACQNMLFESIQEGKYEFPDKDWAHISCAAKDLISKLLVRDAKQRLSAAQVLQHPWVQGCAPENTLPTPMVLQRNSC

Row | Molecule | IC50 (MNK2) | IC50 (MNK1) | further results
1 | N-(1-(4-(3-(4-chlorophenyl)imidazo[1,2-a]pyrazin-6-yl)benzoyl)piperidin-4-yl)-2,2,2-acetamide [Example 49] | – | – | IC50 [3]: < 1 µM
2 | CN1CCN(C(=O)c2ccc(-c3ccn4ncc(-c5ccc(C#N)cc5)c4n3)cc2)CC1 [Example 176, 4-(5-(4-(4-methylpiperazine-1-carbonyl)phenyl)pyrazolo[1,5-a]pyrimidin-3-yl)benzonitrile] | < 0.1 µM | < 0.1 µM | nuclear beta-catenin accumulation [4]: decrease in nuclear beta-catenin accumulation; change of IC50 with treatment duration, K562 cells over-expressing eIF4E [5]: reduced by more than half; BCR-ABL activity (phosphorylation of CrKl) [6]: decrease in BCR-ABL activity; eIF4E phosphorylation [2]: decrease in eIF4E phosphorylation; also recorded: prevent eIF4E phosphorylation
3 | N-(5-(3-(4-cyanophenyl)imidazo[1,2-b]pyridazin-6-yl)-2-morpholine-4-carbonyl)phenyl)acetamide [Example 80] | – | – | IC50 [3]: < 1 µM
4 | CN1CCN(C(=O)c2ccc(-c3cn4c(-c5ccc(C#N)cc5)cnc4cn3)cc2)CC1 [Example 6, 4-(6-(4-(4-methylpinerazine-1-carbonyl)phenyl)imidazo[1,2-a]pyrazin-3-yl)benzonitrile] | – | – | eIF4E phosphorylation [2]: prevent eIF4E phosphorylation
5 | CN1CCN(C(=O)c2ccc(-c3ccc4ncc(-c5ccc(C#N)cc5)n4n3)cc2)CC1 [Example 54] | – | – | IC50 ([3]; Homo sapiens): < 1 µM
6 | N#Cc1ccc(-c2cnc3ccc(-c4ccc(C(=O)N5CCN(c6ccncc6)CC5)cc4)cn23)cc1 [Example 125, 4-(6-(4-(4-(pyridin-4-1)piperazine-1-carbonyl)phenyl)imidazo[1,2-a]pyridin-3-yl)benzonitrile] | – | – | IC50 [3]: < 1 µM
7 | CC(=O)NC1CCN(C(=O)c2ccc(-c3ccn4ncc(-c5ccc(C#N)cc5)c4n3)cc2)CC1 [Example 186, N-(1-(4-(3-(4-cyanophenyl)pyrazolo[1,5-a]pyrimidin-5-yl)benzoyl)piperidin-4-yl)acetamide] | < 0.1 µM | < 0.1 µM | –
8 | CN1CCN(C(=O)c2ccc(-c3ccc4ncc(-c5ccc(C#N)cc5)n4c3)c(Cl)c2)CC1 [Example 153] | < 1 µM | < 1 µM | –
9 | CC(=O)Nc1cc(-c2ccc3ncc(-c4ccc(C#N)cc4)n3c2)ccc1C(=O)N1CCOCC1 [Example 166, N-(5-(3-(4-cyanophenyl)imidazo[1,2-a]pyridin-6-yl)-2-(morpholine-4-carbonyl)phenyl)acetamide] | < 0.1 µM | < 0.1 µM | –
10 | CN1CCN(C(=O)c2ccc(-c3ccc4ncc(-c5ccc(C#N)cc5)n4n3)cc2Cl)CC1 [Example 72, 4-(6-(3-chloro-4-(4-methylpiperazine-1-carbonyl)phenyl)imidazo[1,2-b]pyridazin-3-yl)benzonitrile] | < 0.1 µM | < 0.1 µM | –
11 | Cc1ccc(NC(=O)c2ccc(CN3CCN(C)CC3)cc2)cc1Nc1nccc(-c2cccnc2)n1 [imatinib] | – | – | eIF4E phosphorylation in BC GMPs [7]: not; ability of CD34+ BC cells to serially replate for more than 8 weeks in methylcellulose [8]: only partially impaired

Further lines, with some results ahead:

Row | IC50 (MNK2) | IC50 (MNK1) | Molecule | further results
12 | < 0.1 µM | < 0.1 µM | CN1CCN(C(=O)c2ccc(-c3cn4c(-c5ccc(O)cc5)cnc4cn3)cc2)CC1 [Example 1, (4-(3-(4-hydroxyphenyl)imidazo[1,2-a]pyrazin-6-yl)phenyl)(4-methylpiperazin-1-yl)methanone] | serial replating efficiency of CD34+ BC cells [1]: retards the serial replating efficiency; eIF4E phosphorylation [2]: prevent eIF4E phosphorylation
13 | < 0.1 µM | < 0.1 µM | N#Cc1ccc(-c2cnc3ccc(-c4ccc(C(=O)N5CCOCC5)cc4)nn23)cc1 [Example 62, 4-(6-(4-(morpholine-4-carbonyl)phenyl)imidazo[1,2-b]pyridazin-3-yl)benzonitrile] | nuclear beta-catenin accumulation [4]: decrease in nuclear beta-catenin accumulation; change of IC50 with treatment duration, K562 cells over-expressing eIF4E [5]: reduced by more than half; BCR-ABL activity (phosphorylation of CrKl) [6]: decrease in BCR-ABL activity; eIF4E phosphorylation [2]: decrease in eIF4E phosphorylation; also recorded: prevent eIF4E phosphorylation
14 | < 0.1 µM | < 0.1 µM | CN1CCN(C2CCN(C(=O)c3ccc(-c4ccc5ncc(-c6ccc(C#N)cc6)n5c4)cc3)CC2)CC1 [Example 133, 4-(6-(4-(4(4-methylpiperazin-1-yl)piperidine-1-carbonyl)phenyl)imidazo[1,2-a]pyridin-3-yl)benzonitrile] | change of IC50 with treatment duration, D1.1 cells (D1.1 cells): not influenced by the treatment duration; change of IC50 with treatment duration, K562 cells over-expressing eIF4E [5]: not influenced by the treatment duration; change of IC50 with treatment duration, P116.c139 cells (P116.c139 cells): decrease the IC50 by more than half-fold
15 | < 1 µM | < 1 µM | O=C(c1ccc(-c2cn3c(-c4ccc(O)cc4)cnc3cn2)cc1)N1CCOCC1 [Example 2, (4-(3-(4-hydroxyphenyl)imidazo[1,2-a]pyrazin-6-yl)phenyl)(morpholino)methanone] | ability of BC cells to serial replate ([1]; at 10.0 μM and 20.0): potently impaired the ability of BC cells to serial replate; serial replating efficiency of CD34+ BC cells [1]: retards serial replating efficiency; eIF4E phosphorylation [2]: prevent eIF4E phosphorylation
16 | < 0.1 µM | < 0.1 µM | CN1CCN(C(=O)c2ccc(-c3ccc4ncc(-c5ccc(C#N)cc5)n4c3)c(O)c2)CC1 [Example 144, 4-(6-(2-hydroxy-4-(4-methylpiperazine-1-carbonyl)phenyl)imidazo[1,2-a]pyridin-3-yl)benzonitrile] | IC50 ([3]; Homo sapiens): < 1 µM
17 | < 0.1 µM | < 0.1 µM | CN1CCN(C(=O)c2ccc(-c3ccc4ncc(-c5ccc(C#N)cc5)n4c3)cc2O)CC1 [Example 143, 4-(6-(3-hydroxy-4-(4-methylpiperazine-1-carbonyl)phenyl)imidazo[1,2-a]pyridin-3-yl)benzonitrile] | IC50 ([3]; Homo sapiens): < 1 µM
18 | < 1 µM | < 1 µM | CNC1CCN(C(=O)c2ccc(-c3cn4c(-c5ccc(C#N)cc5)cnc4cn3)cc2)CC1 [Example 9, 4-(6-(4-(4-(methylamino)piperidine-1-carbonyl)phenyl)imidazo[1,2-a]pyrazin-3-yl)benzonitrile] | –
19 | < 0.1 µM | < 0.1 µM | CNC1CCN(C(=O)c2ccc(-c3ccc4ncc(-c5ccc(C#N)cc5)n4n3)cc2)CC1 [Example 60, 4-(6-(4-(4-(methylamino)piperidine-1-carbonyl)phenyl)imidazo[1,2-b]pyridazin-3-yl)benzonitrile] | –
